Measured values taken from patent publication US8304448B2, “Method for the treatment of metabolic disorder containing benzazole derivatives as an active ingredient” (Korea Research Institute of Bioscience and Biotechnology, priority 2006, dated 2012).

Columns and labels:
DGAT = experiment: Assay for inhibitory activity against DGAT ([14C]triacylglycerol formation, rat microsomal protein); assay type: biochemical; details: rat microsomal protein as enzyme source
Text: The derivatives of Chemical Formula 1 in accordance with the present invention are found to inhibit the enzymatic activity of DGAT at a dose-dependent manner (refer to Table 2 and FIG. 1) as measured in a test in which [^14C]triacylglycerol was quantitatively analyzed after enzymatic reaction between 1,2-diacylglycerol and [^14C]palmitoyl-CoA, with microsomal proteins from rats serving as an enzyme source (refer to Example 1).
After enzymatic reaction between two substrates 1,2-diacylglycerol (Sigma, D0138) and [^14C]palmitoyl-CoA (Amersham, CFA583) with the microsomal protein of rat serving as an enzyme source in accordance with Coleman et al, Methods Enzymol., 98-103, 1992, the resulting product [^14C] triacylglycerol was measured for radioactivity. In detail, to a reaction buffer (175 mM Tris-HCl, pH 8.0, 20 μl bovine serum albumin (10 mg/ml), 100 mM MgCl2, 30 μM [^14C] palmitoyl-CoA (0.02 μCi, Amersham) and 200 μM 1,2-dioleoyl glycerol) was added 10 μl of a solution of the samples in dimethylsulfoxide (DMSO) and then 100˜200 μl of an isolated microsomal protein, followed by reaction at 25° C. for 10 min. The reaction was terminated with 1.5 ml of a mixture of 80:20:2 2-propanol:heptane:water (v:v:v). Thereafter, the [^14C] triacylglycerol thus formed was separated. In this regard, 1 ml of heptane and 0.5 ml of distilled water were added to the reaction mixture, which was then shaken. 1 ml of the supernatant thus formed was mixed with 2 ml of an alkaline ethanol solution (ethanol:0.5 N sodium hydroxide:water=50:10:40, v:v:v), followed by shaking. After being taken, 0.65 ml of the supernatant thus formed was measured for radioactivity using an LSC (liquid scintillation counter). The inhibitory activity against DGAT was calculated according to the following Mathematical Formula 1. The inhibitory effects of the benzazole derivatives on DGAT are summarized in Table 2, below while % DGAT inhibition is plotted against doses of compound 22 and 31 in FIG. 1.
T: Cpm of a test group in which a sample was added to an enzymatic buffer,
C: Cpm of a control in which no samples were added to an enzymatic buffer,
B: Cpm of a control in which a sample was added in the absence of any enzyme source.

[1] = system: ICR mice fed a high-fat diet; experiment: In vivo assay for anti-obesity activity in mice fed a high-fat diet; design: species or system mouse; details: high-fat diet
Protocol: Also, the derivatives of Chemical Formula 1 were tested for resistance to obesity by iterative oral administration at a dose of 10 mg/kg into ICR male mice (refer to Example 3). […] When they were administered, the levels of total triglycerides, total cholesterols, and low density lipoprotein (LDL)-cholesterol in the blood recovered to almost normal levels, with a significant increase observed in the level of high density lipoprotein (HDL)-cholesterol in the blood (refer to Tables 6 and 7 and FIGS. 3 and 4).
In order to verify the anti-obesity activity of the benzaldehyde derivatives of Chemical Formula 1 in accordance with the present invention, Compounds 22 and 31 were administered repetitively into rodents as follows.
The experimental animals were 6 week old ICR mice which were purchased from Japan SLC, Inc. via Central Lab. Animal Inc. Korea. They were acclimated to a new environment for one week before use, and fed with a foodstuff commercially available from Deyts, U.S.A. They were bred in an animal lab set at a temperature of 23±3° C. and RH 50±10% under light of 150˜300 Lux for a period of 12 hours (6 a.m.˜6 p.m.) with ventilation 10-20 times/hour. All of the 12 mice used were male, and were organized into two groups of 6. The test group was orally administered once a day at 4 p.m. with 10 mg/kg of the compound (Chemical Formula 1) in the form of a solution in biological saline for 35 days while the control was administered with biological saline only. Xenical, a commercially available lipase inhibitor, was administered orally at a dose of 10 mg/kg once a day as a positive control drug.
The animals were measured for body weight every week and sacrificed on Day 35, after which blood from the heart was sampled. Abdominal fat, epididymal fat, retroperitoneal fat and the liver were excised and weighed. Blood samples were assayed for total triglyceride, total cholesterol, HDL-cholesterol and LDL-cholesterol using respective test kits, all commercially available from Asan Pharmaceutical Co. Ltd., Korea.
For evidence of anti-obesity activity, compounds 22 and 31 were orally administered at regular intervals at a dose of 10 mg/kg into ICR male mice for a predetermined period of time with the concurrent provision of conditional diets thereto. Anatomized abdomens of the animals are given in the photographs of FIG. 2.

[2] = Day 35, 10 mg/kg oral, Mean ± SD
[3] = blood, Day 35, 10 mg/kg oral, Mean ± SD

## COC(=O)c1ccc2[nH]c(COc3ccc([N+](=O)[O-])cc3)nc2c1 [compound 9, 2-(4-nitro-phenoxymethyl)-1H-benzoimidazole-5-carboxylic acid methyl ester]
DGAT; 5 μM
  DGAT (% inhibition in 5 μM): −5.6%
DGAT
  DGAT (% inhibition in 25 μM): 0.61%

## O=C(O)c1ccc2nc(COc3ccc(Cl)cc3Cl)oc2c1 [compound 15, 2-(2,4-dichloro-phenoxymethyl)-benzoxazole-6-carboxylic acid]
DGAT
  DGAT (% inhibition in 25 μM): −13.03%

## O=C(NCc1ccco1)c1ccc2nc(COc3ccc(Cl)cc3Cl)oc2c1 [compound 28, 2-(2,4-dichloro-phenoxymethyl)-benzoxazole-6-carboxylic acid (furan-2-ylmethyl)-amide]
DGAT
  DGAT (% inhibition in 25 μM): −8.07%

## O=C(NCc1ccco1)c1ccc2nc(COc3ccc(Cl)cc3Cl)[nH]c2c1 [compound 35, 2-(2,4-dichloro-phenoxymethyl)-3H-benzoimidazole-5-carboxylic acid (furan-2-ylmethyl)-amide]
DGAT
  DGAT (% inhibition in 25 μM): 28.63%

## CN(C)CCNC(=O)c1ccc2oc(COc3ccc(C45CC6CC(CC(C6)C4)C5)cc3)nc2c1 [compound 23, 2-(4-adamantan-1-yl-phenoxymethyl)-benzoxazole-5-carboxylic acid (2-dimethylamino-ethyl)-amide]
DGAT
  DGAT (% inhibition in 25 μM): 8.59%

## CC(C)(C)c1ccc(OCc2nc3ccc(C(=O)O)cc3o2)cc1 [compound 17, 2-(4-tert-butyl-phenoxymethyl)-benzoxazole-6-carboxylic acid]
DGAT
  DGAT (% inhibition in 25 μM): −29.81%

## COC(=O)c1ccc2[nH]c(COc3ccc(Cl)cc3Cl)nc2c1 [compound 6, 2-(2,4-dichloro-phenoxymethyl)-1H-benzoimidazole-5-carboxylic acid methyl ester]
DGAT
  DGAT (% inhibition in 25 μM): 0.63%

## CN(C)C(=O)c1ccc2oc(COc3ccc(C45CC6CC(CC(C6)C4)C5)cc3)nc2c1 [compound 21, 2-(4-adamantan-1-yl-phenoxymethyl)-benzoxazole-5-carboxylic acid dimethylamide]
DGAT
  DGAT (% inhibition in 25 μM): 10.49%

## O=C(NCc1ccco1)c1ccc2nc(COc3ccc(C45CC6CC(CC(C6)C4)C5)cc3)oc2c1 [compound 27]
DGAT
  DGAT (% inhibition in 25 μM): 13.26%

## O=C(O)c1ccc2oc(COc3ccc(C45CC6CC(CC(C6)C4)C5)cc3)nc2c1 [compound 12, 2-(4-adamantan-1-yl-phenoxymethyl)-benzoxazole-5-carboxylic acid]
DGAT
  DGAT (% inhibition in 25 μM): −10.43%

## COC(=O)c1ccc2nc(COc3ccc(C(C)(C)C)cc3C(C)(C)C)oc2c1 [compound 7, 2-(2,4-tert-butyl-phenoxymethyl)-benzoxazole-6-carboxylic acid methyl ester]
DGAT
  DGAT (% inhibition in 25 μM): 34.5%

## CCCCCCCCCCC[C@@H](C[C@@H]1OC(=O)[C@H]1CCCCCC)OC(=O)[C@H](CC(C)C)NC=O [Xenical, reference compound]
[1]; [2]
  (Tissue Weight/Body Weight) × 100 Abdominal Fat + Epididymal Fat: 2.45 ± 1.03
  (Tissue Weight/Body Weight) × 100 Liver: 4.31 ± 0.76
  (Tissue Weight/Body Weight) × 100 Retroperitoneal Fat: 0.75 ± 0.50
  (Tissue Weight/Body Weight) × 100 Total Fat: 3.20 ± 1.52
[1]; [3]
  HDL-Cholesterol: 30.28 ± 1.52 mg/dL
  LDL-Cholesterol: 20.45 ± 8.99 mg/dL
  Total Cholesterol: 53.75 ± 12.35 mg/dL
  Total Triglyceride: 40.77 ± 6.06 mg/dL
[1]; 10 mg/kg oral once a day for 35 days
  inhibition of body weight gain: 88%
[1]; 10 mg/kg oral once a day, Week 0
  Body Weight (g) (Mean ± SD) Week 0: 26.30 ± 1.45 g
[1]; 10 mg/kg oral once a day, Week 1
  Body Weight (g) (Mean ± SD) Week 1: 33.63 ± 1.28 g
[1]; 10 mg/kg oral once a day, Week 2
  Body Weight (g) (Mean ± SD) Week 2: 37.41 ± 2.02 g
[1]; 10 mg/kg oral once a day, Week 3
  Body Weight (g) (Mean ± SD) Week 3: 39.11 ± 0.90 g
[1]; 10 mg/kg oral once a day, Week 4
  Body Weight (g) (Mean ± SD) Week 4: 39.95 ± 1.26 g
[1]; 10 mg/kg oral once a day, Week 5
  Body Weight (g) (Mean ± SD) Week 5: 41.24 ± 1.60 g

## CC(C)(C)c1ccc(OCc2nc3cc(C(=O)O)ccc3[nH]2)cc1 [compound 18, 2-(4-tert-butyl-phenoxymethyl)-1H-benzoimidazole-5-carboxylic acid]
DGAT
  DGAT (% inhibition in 25 μM): −13.05%

## COC(=O)c1ccc2nc(COc3ccc(Cl)cc3Cl)oc2c1 [compound 5, 2-(2,4-dichloro-phenoxymethyl)-benzoxazole-6-carboxylic acid methyl ester]
DGAT
  DGAT (% inhibition in 25 μM): 1.98%
